Measured values reported in patent US5484940A, “Substituted 3-indolyl-5-pyrazolone compounds” (priority 1994, dated 1996).

How the values were obtained:
human cortical neurons = assay: Inhibition of toxicity of β-amyloid peptide to human neuronal cells (alamarBlue); type: cell-based; details: 50 μM β-amyloid peptide, 2-3 days; on average where more than one duplicate experiment; compound concentration not stated
Description: (§1) The purpose of this test is to determine the effect of 3-indolyl-5-pyrazolone compounds on the toxicity of β-amyloid peptide to neuronal cells.
Primary Human Cortical Cell Culture
Primary human cortical cultures were prepared using a modification of the procedure described by Seubert, et al.^21 Following filtration through Nitex nylon screens, cortical tissue was resuspended in a trypsin/EDTA solution (0.05% trypsin+0.53 mM EDTA in HBSS; GIBCO Laboratories, Grand Island, N.Y., USA) and kept at 37° C. for 20 minutes. The trypsin was then inactivated by resuspending the cells in serum-containing medium (MEM/FBS: Modified Eagles' Medium (MEM) containing 1% glucose, 1 mM sodium pyruvate, 1 mM glutamine, and supplemented with 10% fetal bovine serum (GIBCO). Cells were then pelleted by centrifugation and resuspended in a chemically-defined medium (MEM/B27: MEM containing B27 supplement in place of FBS; GIBCO). Polyethyleneimine (PEI; Sigma Chemical Company, St. Louis, Mo., USA)-coated 6.4 mm (96-well) dishes were rinsed once with MEM/FBS, and then seeded at 0.75 to 1.25×10^5 cells per well in 0.1 mL MEM/B27. Cultures were maintained in a H2 O-saturated incubator with an atmosphere of 95% air/5% CO 2 at 37° C. The culture medium was exchanged twice weekly. Cell viability was visually assessed by phase contrast microscopy and quantified by measuring the reduction of alamarBlue™ (Alamar Biosciences, Inc., Sacramento, Calif., USA).
(§2) β-amyloid peptide stock solutions were prepared as 1 mM stocks in sterile, doubly distilled water immediately prior to addition to cultures. Rat cortical neurons were exposed to β-amyloid peptide by removing the culture medium and replacing it with DMEM/N2 (GIBCO Laboratories,Grand Island, N.Y., USA) containing 10 to 20 μM β-amyloid peptide. Human cortical neurons were exposed to test compound plus β-amyloid peptide by removing the culture medium and replacing it with MEM containing 50 μM β-amyloid peptide. Cultures were maintained for 2-3 days before neuronal survival was quantified using alamarBlue™.
(§3) The alamarBlue™ assay incorporates a fluorometric/colorimetric metabolic indicator (Alamar Biosciences, Inc. Sacramento, Calif., USA). Viable cells convert alamarBlue™ from an oxidized (non-fluorescent, blue) form to a reduced (fluorescent, red) form. Assays were preformed by replacing the culture media with a 10% alamarBlue™ solution in DMEM (rat cortical cultures) or MEM (human cortical cultures).

rat cortical neurons = assay: Inhibition of toxicity of β-amyloid peptide to rat neuronal cells (alamarBlue); type: cell-based; details: 10 to 20 μM β-amyloid peptide, 2-3 days; on average where more than one duplicate experiment; compound concentration not stated
Description: as §1
Primary rat cortical cultures were established from 18 day rat fetuses. Cortical tissue was dissociated by incubation in a trypsin/EDTA solution (0.05% trypsin+0.53 mM EDTA in HBSS; GIBCO Laboratories, Grand Island, N.Y., USA) for 20 minutes at 37° C. The trypsin was then inactivated by resuspending the cells in serum-containing medium (DMEM/FBS): Dulbecco's Modified Eagles' Medium (DMEM) containing 4.5 g/L glucose, 1 mM sodium pyruvate, 1 mM glutamine, 100 Units/mL penicillin, 100 μg/mL streptomycin, and supplemented with 10% heat-inactivated fetal bovine serum (GIBCO Laboratories, Grand Island, N.Y., USA). Cells were then pelleted by centrifugation and resuspended in a chemically-defined medium (DMEM/B27: DMEM containing B27 supplement; GIBCO Laboratories, Grand Island, N.Y., USA) in place of FBS. Polyethyleneimine (PEI; Sigma Chemical Company, St. Louis, Mo., USA)-coated 6.4 mm (96-well) dishes were timed once with DMEM/FBS, and then seeded at 0.75 to 1.25×10^5 cells per well in 0.1 mL DMEM/B27. Cultures were maintained in a H2 O-saturated incubator with an atmosphere of 90% air/10% CO2 at 37° C. Cell viability was visually assessed by phase contrast microscopy and quantified by measuring the reduction of alamarBlue™ (Alamar biosciences, Inc., Sacramento, Calif., USA) as described below. Serum replacement with B27 supplement yields nearly pure neuronal cultures as judged by immunocytochemistry for glial fibrillary acidic protein and neuron-specific enolase (Brewer, et al.^20)
as §2, §3

[1] = tested on: β-amyloid peptide production; assay: Cellular screen for inhibitors of β-amyloid production (ELISA, 293 751 SWE cells); type: cell-based, human; details: 2 h pretreatment + 2 h, normalized for cytotoxicity (MTT), concentration not given
Description: (§4) This screening assay employed cells (K293=human kidney cell line) which were stably transfected with the gene for amyloid precursor protein 751 (APP751) containing the double mutation Lys651 Met652 to Asn651 Leu652 (APP751 numbering) in the manner described in International Patent Application Publication No. 94/10569^1 and Citron et al.^16. This mutation is commonly called the Swedish mutation and the cells, designated as "293 751 SWE", were plated in Coming 96-well plates at 1.5-2.5×10^4 cells per well in Dulbecco's minimal essential media plus 10% fetal bovine serum. Cell number is important in order to achieve β-amyloid ELISA results within the linear range of the assay (~0.2 to 2.5 ng per mL).
Following overnight incubation at 37° C. in an incubator equilibrated with 10% carbon dioxide, media were removed and replaced with 200 μL of a substituted 3-indolyl-5-pyrazolone (drug) containing media per well for a two hour pretreatment period and cells were incubated as above.
At the end of the pretreatment period, the media were again removed and replaced with fresh drag containing media as above and cells were incubated for an additional two hours. After treatment, plates were centrifuged in a Beckman GPR at 1200 rpm for five minutes at room temperature to pellet cellular debris from the conditioned media. From each well, 100 μL of conditioned media or appropriate dilutions thereof were transferred into an ELISA plate precoated with antibody 266 against amino acids 13-28 of β-amyloid peptide as described in International Patent Application Publication No. 94/10569^1 and stored at 4° C. overnight. An ELISA assay employing labelled antibody 6C6 against amino acids 1-16 of β-amyloid peptide was run the next day to measure the amount of β-amyloid peptide produced.
The results of the β-amyloid peptide ELISA were fit to a standard curve and expressed as ng/mL β-amyloid peptide. […] All results are the mean and standard deviation of at least six replicate assays.

293 751 SWE cells = assay: Cytotoxicity (MTT) in 293 751 SWE cells; type: cell-based, human; details: concentration not given
Description: as §4
Cytotoxic effects of the compounds were measured by a modification of the method of Hansen, et al.^17. To the cells remaining in the tissue culture plate was added 25 μL of a 3,(4,5-dimethylthiazol-2-yl)2,5-diphenyltetrazolium bromide (MTT) stock solution (5 mg/mL) to a final concentration of 1 mg/mL. Cells were incubated at 37° C. for one hour, and cellular activity was stopped by the addition of an equal volume of MTT lysis buffer (20% w/v sodium dodecylsulfate in 50% dimethylformamide, pH 4.7). Complete extraction was achieved by overnight shaking at room temperature. The difference in the OD562nm and the OD650nm was measured in a Molecular Device's UVmax microplate reader as an indicator of the cellular viability.

Row | SMILES | inhibition of the toxicity of β-amyloid peptide to human neuronal cells (human cortical neurons) | inhibition of the toxicity of β-amyloid peptide to rat neuronal cells (rat cortical neurons) | reduction of β-amyloid peptide production as compared to control [1] | cytotoxic effect on the 293 751 SWE cells (293 751 SWE cells)
1 | O=C1CC(Cc2cn(C(=O)c3ccc(Cl)cc3)c3ccccc23)=NN1 [A, 3-[1-(4-chlorobenzoyl)-3-indolylmethyl]-5-pyrazolone] | at least 25% | at least 10% | – | –
2 | O=C1CC(CCc2c[nH]c3ccccc23)=NN1C1CCCCC1 [D, 3-[3-indolylethyl]-1-cyclohexyl-5-pyrazolone] | at least 25% | < 10% | – | –
3 | COc1ccc2c(c1)c(CC1=NN(c3ccccc3C)C(=O)C1)c(C)n2C(=O)c1ccc(Cl)cc1 [E] | at least 25% | at least 10% | – | –
4 | COc1ccc2c(c1)c(CC1=NN(C3CCC3)C(=O)C1)c(C)n2C(=O)c1ccc(Cl)cc1 [Example 10, 3-[1-(4-chlorobenzoyl)-5-methoxy-2-methyl-3-indolylmethyl]-1-cyclobutyl-5-pyrazolone] | at least 25% | – | – | –
5 | O=C1CC(Cc2c[nH]c3ccccc23)=NN1C1CCCCC1 [Example 18, 3-(3-indolylmethyl)-1-cyclohexyl-5-pyrazolone] | at least 25% | < 10% | – | –
6 | O=C1CC(Cc2cn(C(=O)c3ccc(Cl)cc3)c3ccccc23)=NN1C1CCCCC1 [Example 19, 3-[1-(4-chlorobenzoyl)-3-indolylmethyl]-1-cyclohexyl-5-pyrazolone] | at least 25% | – | at least 20% | did not have a significant cytotoxic effect
7 | COc1ccc2c(c1)c(CC1=NN(c3cccc(C)c3)C(=O)C1)c(C)n2C(=O)c1ccc(Cl)cc1 [Example 31, 3-[1-(4-chlorobenzoyl)-5-methoxy-2-methyl-3-indolylmethyl]-1-(3-methylphenyl)-5-pyrazolone] | at least 25% | – | at least 20% | did not have a significant cytotoxic effect
8 | COc1ccc2c(c1)c(CC1=NN(c3cccc(F)c3)C(=O)C1)c(C)n2C(=O)c1ccc(Cl)cc1 [Example 32, 3-[1-(4-chlorobenzoyl)-5-methoxy-2-methyl-3-indolylmethyl]-1-(3-fluorophenyl)-5-pyrazolone] | at least 25% | – | at least 20% | did not have a significant cytotoxic effect
9 | COc1ccc2c(c1)c(CC1=NN(c3cccc(N)c3)C(=O)C1)c(C)n2C(=O)c1ccc(Cl)cc1 [Example 40, 3-[1-(4-chlorobenzoyl)-5-methoxy-2-methyl-3-indolylmethyl]-1-(3-aminophenyl)-5-pyrazolone] | at least 25% | – | < 20% | –
10 | COc1ccc2c(c1)c(CC1=NN(C3CCCCC3)C(=O)C1=Cc1ccccc1)c(C)n2C(=O)c1ccc(Cl)cc1 [Example 45, 3-[1-(4-chlorobenzoyl)-5-methoxy-2-methyl-3-indolylmethyl]-1-cyclohexyl-4-benzylidene-5-pyrazolone] | < 25% | – | < 20% | –
11 | COc1ccc(C(=O)n2c(C)c(CC3=NN(c4cccc(C(F)(F)F)c4)C(=O)C3)c3cc(OC)ccc32)cc1 [Example 58, 3-[1-(4-methoxybenzoyl)-5-methoxy-2-methyl-3-indolylmethyl]-1-(3-trifluoromethylphenyl)-5-pyrazolone] | – | – | at least 20% | did not have a significant cytotoxic effect
12 | CCCC(=O)n1c(C)c(CC2=NN(C3CCCCC3)C(=O)C2)c2cc(OC)ccc21 [Example 60, 3-[1-butanoyl-5-methoxy-2-methyl-3-indolylmethyl]-1-cyclohexyl-5-pyrazolon] | – | – | at least 20% | did not have a significant cytotoxic effect
13 | Cc1c(CC2=NN(C3CCCCC3)C(=O)C2)c2cc(Cl)ccc2n1C(=O)c1ccc(Cl)cc1 [Example 62, 3-[1-chlorobenzoyl-5-chloro-2-methyl-3-indolylmethyl]-1-cyclohexyl-5-pyrazolone] | – | – | at least 20% | did not have a significant cytotoxic effect
14 | Cc1c(CC2=NN(c3cccc(C(F)(F)F)c3)C(=O)C2)c2cc(Cl)ccc2n1C(=O)c1ccc(Cl)cc1 [Example 63, 3-[1-(4-chlorobenzoyl)-5-chloro-2-methyl-3-indolylmethyl]-1-(3-trifluoromethylphenyl)-5-pyrazolone] | – | – | at least 20% | did not have a significant cytotoxic effect
